Tests used:
[1] = Comparative HPPD stability: decomposition of mesotrione in the formulation acidified by various acids; type: physicochemical
Description: The final formulation is prepared by 134.4 grams of the S-metolachlor CS with 22.9 grams of water and under agitation adding 15.2 grams of the mesotrione millbase. This is followed by the addition of 152.7 grams of the Potassium Glyphosate concentrate and then 17.5 grams of the Rhodopol 23 pregel of the previous example. […]

[2] = Stability of mesotrione in chloroacetamides (Example 6, FIG. 1 and FIG. 2); type: physicochemical; conditions: in chloroacetamides (S-MOC=S-metolachlor)
Description: Experiments were conducted to look at the stability of mesotrione in chloroacetamides.

CS(=O)(=O)c1ccc(C(=O)C2C(=O)CCCC2=O)c([N+](=O)[O-])c1 [Mesotrione, 2-(2′-nitro-4′-methylsulphonylbenzoyl)-1,3-cyclohexanedione]
Percentage Decomposition of Mesotrione ([1]; Gluconic acid, 38 C., 1 MONTH): 4.30%
Percentage Decomposition of Mesotrione ([1]; Gluconic acid, 38 C., 1 WEEK): 1.59%
Percentage Decomposition of Mesotrione ([1]; Gluconic acid, 38 C., 2 MONTHS): 7.42%
Percentage Decomposition of Mesotrione ([1]; Gluconic acid, 38 C., 2 WEEKS): 1.77%
Percentage Decomposition of Mesotrione ([1]; Gluconic acid, 38 C., 3 MONTHS): 11.23%
Percentage Decomposition of Mesotrione ([1]; Gluconic acid, 38 C., 3 WEEKS): 3.00%
Percentage Decomposition of Mesotrione ([1]; Gluconic acid, 45 C., 1 MONTH): 10.22%
Percentage Decomposition of Mesotrione ([1]; Gluconic acid, 45 C., 1 WEEK): 1.75%
Percentage Decomposition of Mesotrione ([1]; Gluconic acid, 45 C., 2 MONTHS): 23.39%
Percentage Decomposition of Mesotrione ([1]; Gluconic acid, 45 C., 2 WEEKS): 4.91%
Percentage Decomposition of Mesotrione ([1]; Gluconic acid, 45 C., 3 MONTHS): 35.81%
Percentage Decomposition of Mesotrione ([1]; Gluconic acid, 45 C., 3 WEEKS): 6.77%
Percentage Decomposition of Mesotrione ([1]; Gluconic acid, 50 C., 1 MONTH): 26.24%
Percentage Decomposition of Mesotrione ([1]; Gluconic acid, 50 C., 1 WEEK): 5.91%
Percentage Decomposition of Mesotrione ([1]; Gluconic acid, 50 C., 2 MONTHS): 54.80%
Percentage Decomposition of Mesotrione ([1]; Gluconic acid, 50 C., 2 WEEKS): 11.61%
Percentage Decomposition of Mesotrione ([1]; Gluconic acid, 50 C., 3 DAYS): 3.26%
Percentage Decomposition of Mesotrione ([1]; Gluconic acid, 50 C., 3 MONTHS): 73.08%
Percentage Decomposition of Mesotrione ([1]; Gluconic acid, 50 C., 3 WEEKS): 17.40%
Percentage Decomposition of Mesotrione ([1]; Gluconic acid, −18 C., 6 MONTHS): −0.18%
Percentage Decomposition of Mesotrione ([1]; No acid, 38 C., 1 MONTH): 17.27%
Percentage Decomposition of Mesotrione ([1]; No acid, 38 C., 1 WEEK): 4.63%
Percentage Decomposition of Mesotrione ([1]; No acid, 38 C., 2 MONTHS): 25.52%
Percentage Decomposition of Mesotrione ([1]; No acid, 38 C., 2 WEEKS): 9.97%
Percentage Decomposition of Mesotrione ([1]; No acid, 38 C., 3 MONTHS): 31.02%
Percentage Decomposition of Mesotrione ([1]; No acid, 38 C., 3 WEEKS): 13.05%
Percentage Decomposition of Mesotrione ([1]; No acid, 45 C., 1 MONTH): 32.01%
Percentage Decomposition of Mesotrione ([1]; No acid, 45 C., 1 WEEK): 11.97%
Percentage Decomposition of Mesotrione ([1]; No acid, 45 C., 2 MONTHS): 49.76%
Percentage Decomposition of Mesotrione ([1]; No acid, 45 C., 2 WEEKS): 19.71%
Percentage Decomposition of Mesotrione ([1]; No acid, 45 C., 3 MONTHS): 62.57%
Percentage Decomposition of Mesotrione ([1]; No acid, 45 C., 3 WEEKS): 25.71%
Percentage Decomposition of Mesotrione ([1]; No acid, 50 C., 1 MONTH): 53.82%
Percentage Decomposition of Mesotrione ([1]; No acid, 50 C., 1 WEEK): 20.39%
Percentage Decomposition of Mesotrione ([1]; No acid, 50 C., 2 MONTHS): 77.94%
Percentage Decomposition of Mesotrione ([1]; No acid, 50 C., 2 WEEKS): 35.25%
Percentage Decomposition of Mesotrione ([1]; No acid, 50 C., 3 DAYS): 11.30%
Percentage Decomposition of Mesotrione ([1]; No acid, 50 C., 3 MONTHS): 88.38%
Percentage Decomposition of Mesotrione ([1]; No acid, 50 C., 3 WEEKS): 46.31%
Percentage Decomposition of Mesotrione ([1]; No acid, −18 C., 6 MONTHS): 1.07%
Percentage Decomposition of Mesotrione ([1]; Phosphoric acid, 38 C., 1 MONTH): 3.48%
Percentage Decomposition of Mesotrione ([1]; Phosphoric acid, 38 C., 1 WEEK): 1.30%
Percentage Decomposition of Mesotrione ([1]; Phosphoric acid, 38 C., 2 MONTHS): 5.08%
Percentage Decomposition of Mesotrione ([1]; Phosphoric acid, 38 C., 2 WEEKS): 1.09%
Percentage Decomposition of Mesotrione ([1]; Phosphoric acid, 38 C., 3 MONTHS): 7.65%
Percentage Decomposition of Mesotrione ([1]; Phosphoric acid, 38 C., 3 WEEKS): 1.40%
Percentage Decomposition of Mesotrione ([1]; Phosphoric acid, 45 C., 1 MONTH): 7.12%
Percentage Decomposition of Mesotrione ([1]; Phosphoric acid, 45 C., 1 WEEK): 1.87%
Percentage Decomposition of Mesotrione ([1]; Phosphoric acid, 45 C., 2 MONTHS): 14.59%
Percentage Decomposition of Mesotrione ([1]; Phosphoric acid, 45 C., 2 WEEKS): 2.43%
Percentage Decomposition of Mesotrione ([1]; Phosphoric acid, 45 C., 3 MONTHS): 23.48%
Percentage Decomposition of Mesotrione ([1]; Phosphoric acid, 45 C., 3 WEEKS): 3.13%
Percentage Decomposition of Mesotrione ([1]; Phosphoric acid, 50 C., 1 MONTH): 16.79%
Percentage Decomposition of Mesotrione ([1]; Phosphoric acid, 50 C., 1 WEEK): 2.93%
Percentage Decomposition of Mesotrione ([1]; Phosphoric acid, 50 C., 2 MONTHS): 36.38%
Percentage Decomposition of Mesotrione ([1]; Phosphoric acid, 50 C., 2 WEEKS): 7.09%
Percentage Decomposition of Mesotrione ([1]; Phosphoric acid, 50 C., 3 DAYS): 1.77%
Percentage Decomposition of Mesotrione ([1]; Phosphoric acid, 50 C., 3 MONTHS): 58.11%
Percentage Decomposition of Mesotrione ([1]; Phosphoric acid, 50 C., 3 WEEKS): 10.85%
Percentage Decomposition of Mesotrione ([1]; Phosphoric acid, −18 C., 6 MONTHS): 0.94%
Percentage Decomposition of Mesotrione ([1]; Toluene-sulfonic acid, 38 C., 1 MONTH): 2.81%
Percentage Decomposition of Mesotrione ([1]; Toluene-sulfonic acid, 38 C., 1 WEEK): 0.75%
Percentage Decomposition of Mesotrione ([1]; Toluene-sulfonic acid, 38 C., 2 MONTHS): 4.00%
Percentage Decomposition of Mesotrione ([1]; Toluene-sulfonic acid, 38 C., 2 WEEKS): 0.78%
Percentage Decomposition of Mesotrione ([1]; Toluene-sulfonic acid, 38 C., 3 MONTHS): 2.14%
Percentage Decomposition of Mesotrione ([1]; Toluene-sulfonic acid, 38 C., 3 WEEKS): 1.74%
Percentage Decomposition of Mesotrione ([1]; Toluene-sulfonic acid, 45 C., 1 MONTH): 5.85%
Percentage Decomposition of Mesotrione ([1]; Toluene-sulfonic acid, 45 C., 1 WEEK): 1.64%
Percentage Decomposition of Mesotrione ([1]; Toluene-sulfonic acid, 45 C., 2 MONTHS): 11.08%
Percentage Decomposition of Mesotrione ([1]; Toluene-sulfonic acid, 45 C., 2 WEEKS): 3.06%
Percentage Decomposition of Mesotrione ([1]; Toluene-sulfonic acid, 45 C., 3 MONTHS): 18.29%
Percentage Decomposition of Mesotrione ([1]; Toluene-sulfonic acid, 45 C., 3 WEEKS): 4.12%
Percentage Decomposition of Mesotrione ([1]; Toluene-sulfonic acid, 50 C., 1 MONTH): 13.91%
Percentage Decomposition of Mesotrione ([1]; Toluene-sulfonic acid, 50 C., 1 WEEK): 2.32%
Percentage Decomposition of Mesotrione ([1]; Toluene-sulfonic acid, 50 C., 2 MONTHS): 28.00%
Percentage Decomposition of Mesotrione ([1]; Toluene-sulfonic acid, 50 C., 2 WEEKS): 5.94%
Percentage Decomposition of Mesotrione ([1]; Toluene-sulfonic acid, 50 C., 3 DAYS): 2.11%
Percentage Decomposition of Mesotrione ([1]; Toluene-sulfonic acid, 50 C., 3 MONTHS): 44.55%
Percentage Decomposition of Mesotrione ([1]; Toluene-sulfonic acid, 50 C., 3 WEEKS): 9.69%
Percentage Decomposition of Mesotrione ([1]; Toluene-sulfonic acid, −18 C., 6 MONTHS): 0.05%
stability of mesotrione in chloroacetamides [2]: lack of stability

Reference: patent publication US9468213B2, “Herbicide formulation” (Syngenta Crop Protection LLC, priority 2008, dated 2016)
